Experimental data taken from patent US20050154060A1, “Anti-inflamatory inhalation pharmaceutical composition” (Galephar Pharmaceutical Research, Inc., priority 2003, published 2005).

What was measured:
[1] = test system: interleukine 6 (IL-6); assay: Sputum IL-6 in 12-week placebo controlled study of NAL DPI in COPD patients; assay type: in vivo, human (COPD patients); details: for concentration in IL-6 decreased by: sputum, after 12 weeks of treatment
Procedure: (§1) A new clinical trial has been performed with a dry powder inhaler (DPI) formulation of NAL in moderate to severely ill COPD patients. The study was performed with two doses of NAL DPI: 20 mg twice a day and 40 mg twice a day versus placebo.
(§2) The complete title of the study was “A 12-week, multicentre, randomised, double-blind, placebo controlled, pilot study of the safety and efficacy of Nacystelyn (20 mg b.i.d. and 40 mg b.i.d.) in patients with chronic obstructive pulmonary disease (COPD).”
(§3) NAL pulmonary administration was performed using a Dry Powder Inhaler consisting of a capsule containing NAL and a carrier, and of an inhalation device.
(§4) During the same study, sputum of COPD patients was collected at baseline (T0), after 4 weeks (w4) and after 12 weeks of treatment (T12).
(§5) The purpose of collecting sputum was to assess if NAL DPI administration could affect (increase or decrease) lung inflammation parameters in such patients. Lung inflammation may be reflected by the sputum concentration of some pro-inflammatory markers, called cytokines, such as interleukine 6 (IL-6) and interleukine 8 (IL-8) or anti-inflammatory markers, such as interleukine 10 (IL-10).
(§6) After collection of the mucus, the said mucus was centrifugated and the cytokines IL-8 and IL-6 were quantified using a validated analytical method. It should be noted that only subjects presenting a quantifiable value of cytokines at the time considered were taken into account.

[2] = test system: interleukine 8 (IL-8); assay: Sputum IL-8 in 12-week placebo controlled study of NAL DPI in COPD patients; assay type: in vivo, human (COPD patients)
Procedure: as §1, §2, §3, §4, §5, §6

[3] = sputum of COPD patients, NAL DPI 20 mg twice a day, week 4
[4] = sputum of COPD patients, NAL DPI 20 mg twice a day, week 12
[5] = sputum of COPD patients, NAL DPI 40 mg twice a day, week 4
[6] = sputum of COPD patients, NAL DPI 40 mg twice a day, week 12

SMILES: CC(=O)N[C@@H](CS)C(=O)O.NCCCC[C@H](N)C(=O)O [NAL, L-Lysine-N-Acetylcysteinate]
- effect on IL-6 in sputum (in words) ([1]; sputum of COPD patients, 20 mg and 40 mg twice a day): decrease of IL-6 in the sputum of COPD patients in a dose related manner
- change in inflammatory marker IL-6, percent change versus baseline [1, 3]: 24%
- change in inflammatory marker IL-6, percent change versus baseline [1, 4]: −17%
- change in inflammatory marker IL-6, percent change versus baseline [1, 5]: 70%
- change in inflammatory marker IL-6, percent change versus baseline [1, 6]: −42%
- concentration in IL-6 decreased by ([1]; NAL 20 mg): 17%
- concentration in IL-6 decreased by ([1]; NAL 40 mg): 42%
- effect on IL-8 levels in sputum (in words) ([2]; sputum of COPD patients): significantly decrease the IL-8 levels in the sputum
- change in inflammatory marker IL-8, percent change versus baseline [2, 3]: −13%
- change in inflammatory marker IL-8, percent change versus baseline [2, 4]: −17%
- change in inflammatory marker IL-8, percent change versus baseline [2, 5]: −2%
- change in inflammatory marker IL-8, percent change versus baseline [2, 6]: +3%
- levels of IL-8 decreased by ([2]; sputum, after 12 weeks of treatment, NAL 20 mg): 17%
- levels of IL-8 increased by ([2]; sputum, after 12 weeks of treatment, NAL 40 mg): 3%
